Data on four molecules can be found in article PMC6508677, “Identification of druggable small molecule antagonists of the Plasmodium falciparum hexose transporter PfHT and assessment of ligand access to the glucose permeation pathway via FLAG-mediated protein engineering” (PLoS ONE, 2019).

The target in one test is T1, hGLUT1 (Homo sapiens, UniProt P11166).
T1 construct: expressed in transfected cells; host or cells: HEK293 (HEK293-FLIP); native hGLUT1 not knocked down in this line
T1 sequence (P11166 1-492): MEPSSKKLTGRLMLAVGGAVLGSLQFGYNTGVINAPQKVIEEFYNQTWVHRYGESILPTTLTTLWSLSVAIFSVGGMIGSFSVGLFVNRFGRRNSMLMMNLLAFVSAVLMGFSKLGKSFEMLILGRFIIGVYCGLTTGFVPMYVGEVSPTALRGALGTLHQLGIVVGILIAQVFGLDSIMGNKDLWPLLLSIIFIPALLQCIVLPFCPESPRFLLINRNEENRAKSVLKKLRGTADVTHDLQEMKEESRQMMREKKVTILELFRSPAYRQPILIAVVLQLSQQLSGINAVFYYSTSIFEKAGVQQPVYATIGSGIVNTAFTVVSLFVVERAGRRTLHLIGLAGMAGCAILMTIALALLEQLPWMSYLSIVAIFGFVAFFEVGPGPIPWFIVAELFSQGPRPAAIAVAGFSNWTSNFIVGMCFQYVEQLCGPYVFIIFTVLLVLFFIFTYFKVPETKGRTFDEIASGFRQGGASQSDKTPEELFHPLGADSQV
Kind of test: 2-DG uptake by HEK293 cells overexpressing hGLUT1. It is filed as cell-based. Particulars: for IC50 for inhibition of 2-DG uptake: GLUT1 cell line; for inhibition at 5 µM: 5 μM compound. An excerpt: (§1) Generation of HEK293 cells overexpressing PfHT and human GLUTs 1–4 were described elsewhere. Briefly, HEK293 cells were transfected with pcDNA3.1 FLII12Pglu-7006 (Addgene), containing the fluorescence resonance energy transfer (FRET) glucose sensor (HEK293-FLIP) and PfHT, human GLUT1 (hGLUT1), hGLUT2, hGLUT3, hGLUT4, hGLUT5 or hGLUT8 using Optifect (Life Technologies) according to manufacturer’s specifications. To increase retention of GLUT8 at the plasma membrane, the dileucine sorting signal E^7E^8XXXLL was modified to R^7R^8XXXLL as described in [17]. Stable transfectants were selected for G418 and hygromycin resistance to select for FRET sensor and hexose transporter, respectively. HEK293-FLIP cells were also used to generate cells stably transfected with FLAG-tagged PfHT (FTPfHT). FLAG tag ([…]) followed by a triple glycine linker and a tobacco etch virus (TEV) protease site (ENLYFQS) followed by a triple glycine linker was added to the N-terminus of PfHT via PCR [18] using Phusion Hot Start II High-Fidelity DNA Polymerase (Fisher Scientific). Single clones were selected by comparing their abilities to transport glucose as assayed via FRET and radiolabeled hexose uptake. In all cell lines, except for HEK293 cells overexpressing hGLUT1 and hGLUT5, native hGLUT1 was knocked down using shRNA as described elsewhere. Transcript levels of the individual GLUTs expressed in each cell line are as described in [13, 15] and in S1 Fig.
(§2) Glucose uptake by P. falciparum was performed essentially as described. P. falciparum strain 3D7 was cultured in 100 mm tissue culture dishes (Techno Plastic Products) in a 2% suspension of human erythrocytes and RPMI 1640 medium until reaching > 7.5% parasitemia. Cells were pelleted via centrifugation and resuspended in RPMI 1640 medium. To determine the uptake of radiolabeled glucose into the parasite, parasites were isolated from infected erythrocytes by permeablization with saponin (0.05 w/v), followed by centrifugation, aspiration of supernatant and washing of the pellet 3X with saline solution (135 mM NaCl, 2 mM KCl, 25 mM HEPES, 0.2 mM glucose and 1 mM MgCl2; pH 7.1) to remove cellular debris. WU-1 or DMSO vehicle were added to 100 μl parasites (resuspended in saline) 5 min prior to the addition of 100 μl [^14C]2-DOG (0.2- μCi/ml final concentration). 2-DG uptake was stopped after 2 min by layering the entire reaction over 300 μl of an oil mixture (5:4 mix of dibutyl phthalate / dinonyl phthalate) in Eppendorf tubes and centrifuged at 15,850 × g for 2 mins. The ratio of the estimated intracellular concentration of radiolabel relative to the extracellular concentration were calculated as described. Uptake of radiolabeled hexose into HEK293 cells was measured in glucose-free HBSS as described previously. Briefly, cells were plated at 400,000 cells/well overnight at 37°C in 24-well plates pre-treated with PEI. After 30-min incubation at 37°C in glucose-free HBSS in the presence of vehicle or increasing concentrations of compound, 2-DG uptake was measured in glucose-free HBSS for 4 min at 37°C. Cultures were washed in ice-cold 1X PBS and lysed in 0.1% Triton X-100 in 1X PBS. Radiolabeled hexose uptake was determined by liquid scintillation counting (Ultima Gold, Thermo Fisher) and normalized to total protein per well. Uptake data are plotted as percent uptake relative to vehicle-treated cells. Kinetic analyses were performed using the indicated concentrations of substrate and WU-1, with quenching of uptake after 1 min incubation. Incubation times had been previously determined as being in the linear range of time-dependent radiolabeled hexose uptake (2 min for 2-DG uptake into freed parasites; 2 and 4 min for D-Frc and 2-DG uptake HEK cell lines, respectively). Data were fit by least squares nonlinear regression analysis using GraphPad Prism 6.0 software.

In a further test the target is T2, hGLUT4 (Homo sapiens, UniProt P14672).
T2 construct: expressed in transfected cells; host or cells: HEK293 (HEK293-FLIP, native hGLUT1 knocked down by shRNA)
T2 sequence (P14672 1-509): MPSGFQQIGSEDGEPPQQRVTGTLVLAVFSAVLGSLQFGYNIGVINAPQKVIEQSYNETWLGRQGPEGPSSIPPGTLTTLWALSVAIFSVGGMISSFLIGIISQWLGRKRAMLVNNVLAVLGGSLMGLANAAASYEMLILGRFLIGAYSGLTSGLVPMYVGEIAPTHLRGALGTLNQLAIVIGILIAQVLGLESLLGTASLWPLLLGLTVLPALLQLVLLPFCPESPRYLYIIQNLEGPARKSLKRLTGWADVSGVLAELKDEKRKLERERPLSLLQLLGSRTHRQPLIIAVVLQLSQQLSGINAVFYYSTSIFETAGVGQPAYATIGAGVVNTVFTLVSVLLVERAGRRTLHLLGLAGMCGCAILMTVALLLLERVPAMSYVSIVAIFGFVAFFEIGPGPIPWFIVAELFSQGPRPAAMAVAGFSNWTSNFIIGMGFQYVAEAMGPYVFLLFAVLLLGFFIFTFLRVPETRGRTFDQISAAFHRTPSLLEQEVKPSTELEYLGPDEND
As to the kind of experiment: 2-DG uptake by HEK293 cells overexpressing hGLUT4. In kind it is cell-based. Particulars: for remaining activity at 0.001 µM: 0.001 µM compound; for remaining activity at 0.001 µM / remaining activity at 1.25 µM / remaining activity at 2.5 µM / remaining activity at 5 µM / remaining activity at 10 µM / remaining activity at 20 µM / remaining activity at 40 µM / remaining activity at 80 µM / remaining activity at 160 µM / remaining activity at 225 µM: read-out: 2-DG uptake (percent uptake relative to vehicle), AVE per experiment; for remaining activity at 1.25 µM: 1.25 µM compound; for remaining activity at 20 µM: 20 µM compound; for remaining activity at 40 µM: 40 µM compound; for remaining activity at 80 µM: 80 µM compound; for remaining activity at 160 µM: 160 µM compound; for remaining activity at 225 µM: 225 µM compound; for IC50: IC50 for inhibition of 2-DG uptake.
Description: as §1, §2

The mark [1] stands for this setting: HEK293, 4 min, GLUT1, read-out: % Inhibition of 2-DG uptake vs vehicle.
[2] abbreviates: HEK293, 4 min, GLUT4, 2.5 µM compound.
The mark [3] stands for this setting: HEK293, 4 min, GLUT4, 5 µM compound.
Setting [4] is: HEK293, 4 min, GLUT4, 10 µM compound.
[5] abbreviates: GLUT4 cell line, mean/reported value.

Where “and” joins values, the source holds several entries; their conditions need not be identical. Equal values may be shown once. Read-outs that look alike come from different tables or passages of the source.

Turning to `Cc1ccc(S(=O)(=O)CCNC(=O)c2c(-c3c(Cl)cccc3Cl)noc2C)cc1` [WU-1, 3-(2,6-dichlorophenyl)-5-methyl-N-[2-(4-methylbenzenesulfonyl)ethyl]-1,2-oxazole-4-carboxamide], the “2-DG uptake (percent uptake relative to vehicle)” value on hGLUT1 (GLUT1, 0.001 µM compound) is 100; on hGLUT1 (GLUT1, 1.25 µM compound), 99.74; at hGLUT1 (GLUT1, 2.5 µM compound), 109.88; at hGLUT1 (GLUT1, 5 µM compound), 102.1; at hGLUT1 (GLUT1, 10 µM compound) it was 100.82; at hGLUT1 (GLUT1, 20 µM compound), 110.03. Moreover, the “2-DG uptake (percent uptake relative to vehicle)” value was found to be 120.62 at hGLUT1 (GLUT1, 40 µM compound); 121.35 at hGLUT1 (GLUT1, 80 µM compound); 125.18 on hGLUT1 (GLUT1, 160 µM compound); 132.09 on hGLUT1 (GLUT1, 225 µM compound). The “IC50 for inhibition of 2-DG uptake” value at hGLUT1 is on record as “n.i”. In addition, the inhibition at 5 µM on hGLUT1 (setting [1]) was -2.1%; at hGLUT4 (HEK293, 4 min, read-out: % Inhibition of 2-DG uptake vs vehicle) it was -1.91%. In addition, the “IC50 for inhibition of 2-DG uptake, individual experiments” value at hGLUT4 (GLUT4, Expt 1-3) is “ambiguous”. The remaining activity at 0.001 µM on hGLUT4 (HEK293, 4 min, GLUT4) came out at 100%. Besides, the remaining activity at 1.25 µM on hGLUT4 (HEK293, 4 min, GLUT4) amounted to 99.2%. Besides, the remaining activity at 2.5 µM on hGLUT4 (setting [2]) came out at 96.1%. Besides, the remaining activity at 5 µM worked out at 89.1% on hGLUT4 (setting [3]) and 102% on hGLUT4 (HEK293, 4 min). In addition, the remaining activity at 10 µM on hGLUT4 (setting [4]) was determined as 94%; at hGLUT4 (HEK293, 4 min), 83.2%. In addition, the remaining activity at 20 µM at hGLUT4 (HEK293, 4 min, GLUT4) amounted to 88.4%. Further, the remaining activity at 40 µM on hGLUT4 (HEK293, 4 min, GLUT4) came to 86.8%. Further, the remaining activity at 80 µM at hGLUT4 (HEK293, 4 min, GLUT4) was 74.7%. For the same molecule, the remaining activity at 160 µM on hGLUT4 (HEK293, 4 min, GLUT4) turned out to be 64.7%. Further, the remaining activity at 225 µM on hGLUT4 (HEK293, 4 min, GLUT4) turned out to be 61.9%. This molecule also came in with a half-maximal inhibitory concentration (IC50) on hGLUT4 (setting [5]) above 100 µM.

On to `COc1c(Br)cc([N+](=O)[O-])c(OC)c1C(=O)NC(=O)Nc1c(C)cccc1Cl` [WU-2, 3-(3-bromo-2,6-dimethoxy-5-nitrobenzoyl)-1-(2-chloro-6-methylphenyl)urea], for which the “2-DG uptake (percent uptake relative to vehicle)” value is given as 100 at hGLUT1 (GLUT1, 0.001 µM compound); 114.79 on hGLUT1 (GLUT1, 1.25 µM compound); 107.57 at hGLUT1 (GLUT1, 2.5 µM compound); 107.75 at hGLUT1 (GLUT1, 5 µM compound); 114.4 at hGLUT1 (GLUT1, 10 µM compound); 108.02 at hGLUT1 (GLUT1, 20 µM compound). The “2-DG uptake (percent uptake relative to vehicle)” value at hGLUT1 (GLUT1, 40 µM compound) is reported as 132.21; on hGLUT1 (GLUT1, 80 µM compound), 130.08; on hGLUT1 (GLUT1, 160 µM compound) it was 118.85; on hGLUT1 (GLUT1, 225 µM compound), 129.55. The “IC50 for inhibition of 2-DG uptake” value on hGLUT1 is “n.i”. Also, the inhibition at 5 µM at hGLUT1 (setting [1]) is -7.75%; at hGLUT4 (HEK293, 4 min, GLUT4, 5 µM compound, read-out: % Inhibition of 2-DG uptake vs vehicle), 10 to 12%. On hGLUT4 (2-DG uptake, GLUT4 cell line), the “Maximum Inhibition (%)” value is recorded as 40.0%. For the same molecule, on hGLUT4 (HEK293, 4 min, GLUT4), the remaining activity at 0.001 µM was 100%. In addition, on hGLUT4 (HEK293, 4 min, GLUT4), the remaining activity at 1.25 µM was determined as 95.3%. For the same molecule, the remaining activity at 2.5 µM on hGLUT4 (setting [2]) was 91.7%. In addition, the remaining activity at 5 µM on hGLUT4 (setting [3]) stood at 86.8%. The remaining activity at 10 µM at hGLUT4 (setting [4]) turned out to be 88.3%. In addition, the remaining activity at 20 µM on hGLUT4 (HEK293, 4 min, GLUT4) is 74.1%. Further, the remaining activity at 40 µM on hGLUT4 (HEK293, 4 min, GLUT4) is 66.7%. The remaining activity at 80 µM on hGLUT4 (HEK293, 4 min, GLUT4) turned out to be 61%. For the same molecule, the remaining activity at 160 µM at hGLUT4 (HEK293, 4 min, GLUT4) was 55.7%. The remaining activity at 225 µM on hGLUT4 (HEK293, 4 min, GLUT4) amounted to 63.7%. The concentration for half-maximal inhibition (IC50) on hGLUT4 (setting [5]) is 18.5 ± 3.5 µM; against hGLUT4 (individual experiments, GLUT4, Expt 1-3), 14.2 µM and 25.4 µM and 15.9 µM.

On to `COc1cc(/C=N/NC(=O)c2cc(-c3ccccc3)sc2N)cc(OC)c1OC` [WU-3, 2-amino-5-phenyl-N'-[(E)-(3,4,5-trimethoxyphenyl)methylidene]thiophene-3-carbohydrazide], for which the inhibition at 10 µM on hGLUT1 (HEK293, 4 min, GLUT1, 10 μM compound, read-out: % Inhibition of 2-DG uptake vs vehicle) was at least 50%.

Turning to `COc1cc(/C=C2\COC/C(=C\c3cc(OC)c(OC)c(OC)c3)C2=O)cc(OC)c1OC` [WU-5, (3E,5E)-3,5-bis[(3,4,5-trimethoxyphenyl)methylidene]oxan-4-one], the inhibition at 2.5 µM on hGLUT1 (HEK293, 4 min, GLUT1, 2.5 μM compound, read-out: % Inhibition of 2-DG uptake vs vehicle) is 2.94%; at hGLUT4 (HEK293, 4 min, GLUT4, 2.5 µM compound, read-out: % Inhibition of 2-DG uptake vs vehicle), around 45%.
